Literature values in patent US6646013B1, “Nutrient formulations for disease reduction” (Nutri-Logics, priority 1999, dated 2003).
Read-outs that look alike come from different tables or passages of the source. Each block holds one compound with its values, some of them ahead of it.

Columns and labels:
[1] = saturable absorption
mice = conditions: oral doses
[2] = animal fertility studies
rats = conditions: oral doses
[3] = circulation
[4] = not given; remark: listed apart in the source
colorectal cancer = conditions: meta-analysis of twenty-four studies, calcium intake
[5] = not given; remark: listed apart in the source
[6] = gastrointestinal side effects (distress, bloating)
colon carcinogenesis = conditions: rat colon model for carcinogenesis
colon cancer = conditions: patients with chronic ulcerative colitis
[7] = not given; remark: listed apart in the source
[8] = not given; remark: listed apart in the source
[9] = normal parathyroid function and vitamin D sensitivity
vitamin K activity = conditions: vitamin K-deficient patients
prostate cancer = conditions: vitamin E intake [37]
[10] = not given; remark: listed apart in the source

concentration at which absorption is half-maximal [1]: about 1 mM
Compound: O=C1O[C@H]([C@@H](O)CO)C(O)=C1O [Ascorbate, ascorbic acid]

Compound: CC(=O)N[C@@H](CS)C(=O)O [NAC, N-Acetyl-l-cysteine]
LD50 (mice): 7888 mg/kg | dose with no adverse effects reported [2]: up to 250 mg/kg | dose with no teratogenic effects observed [2]: ≤ 2000 mg/kg | plasma half-life of free NAC (estimated): about 2 hours | time to peak plasma NAC concentration (oral administration): less than one | bioavailability of the intact NAC molecule (oral, estimated): 4-10% | time post-administration at which virtually no NAC is detected (plasma): 10 to 12 h | LD50 (rats): greater than 6000 mg/kg

share of circulating vitamin B6 [3]: at least 60%
Compound: Cc1ncc(COP(=O)(O)O)c(C=O)c1O [Pyridoxal phosphate, pyridoxal 5′ phosphate]

time to peak plasma concentrations ([4]; oral): ≤ 2 h | time to significant plasma concentrations ([4]; oral): ≤ 30 min | excreted in the urine as acyl glucuronide ([4]; urine): 5% | excreted in the urine as free salicylic acid ([4]; urine): 10% | excreted in the urine as salicylic phenolic glucuronide ([4]; urine): 10% | excreted in the urine as salicyluric acid ([4]; urine): 75%
Compound: O=C(O)c1ccccc1O [Salicylate, salicylic acid]

Compound: [Ca] [calcium]
summary relative risk of colorectal cancer (colorectal cancer): 0.89 (0.79-1.01) | fraction complexed to anionic buffers ([5]; human plasma): about 10% | fraction bound to plasma proteins ([5]; human plasma, primarily albumin): approximately 45% | fraction of filtered Ca2+ reabsorbed ([5]; kidney): approximately 98% | supplement dose above which generally not well tolerated [6]: exceeding 800 mg per day

Compound: COc1cc(/C=C/C(=O)CC(=O)/C=C/c2ccc(O)c(OC)c2)ccc1O [curcumin, (E,E)-1,7-Bis(4-hydroxy-3-methoxyphenyl)-1,6-heptadiene-3,5-dione]
efficacy of pure form (>98%) versus food-grade curcumin (colon carcinogenesis): equally effective

Compound: Nc1nc2ncc(CNc3ccc(C(=O)N[C@@H](CCC(=O)O)C(=O)O)cc3)nc2c(=O)[nH]1 [folic acid, N-[**4-[**[**(2-Amino-1,4-dihydro-4-oxo-6-pteridinyl)methyl]amino]benzoyl]-L-glutamic Acid]
lower incidence of colon cancer versus no supplementation (colon cancer): 62% | dose with no adverse human effects ([7]; duration not stated): 15 mg/day | dose with no adverse human effects ([7]; for 4 months): 10 mg/day

dose at which symptoms of dependency were noted ([8]; adults): 200 mg daily
Compound: Cc1ncc(CO)c(CO)c1O [vitamin B6, pyridoxine]
dose at which neurotoxicity may develop ([8]; prolonged ingestion): 200 mg per day

Compound: C=C1CC[C@H](O)C/C1=C/C=C1\CCC[C@]2(C)[C@@H]([C@H](C)CCCC(C)C)CC[C@@H]12 [vitamin D, (3β,5Z,7E)-9,10-Secocholesta-5,7,10(19)-triene-3-ol]
continuous daily ingestion causing signs of hypervitaminosis [9]: ≥ 50,000 units daily

prolonged daily intake after which bleeding is a concern (vitamin K activity): > 800 IU
Compound: Cc1c(C)c2c(c(C)c1O)CCC(C)(CCCC(C)CCCC(C)CCCC(C)C)O2 (stereo not shown) [vitamin E, 3,4-Dihydro-2,5,7,8-tetramethyl-2-(4,8,12-trimethyltridecyl)-2H-1-benzopyran-6-ol]
decrease in the incidence of prostate cancer (prostate cancer): 34%

share of the body's stores in the liver [10]: ≤ 90%
Compound: Cyanocobalamin [vitamin B12]
